Experiments:
[1] = biological target: 5'-AMP-activated protein kinase catalytic subunit alpha-2 (Homo sapiens) (UniProt P54646); settings: at 10 µM
[2] = biological target: Ribosomal protein S6 kinase beta-1 (Homo sapiens, UniProt P23443); test: Selectivity interaction (KinomeScan (DiscoverX)) EUB0000229b RPS6KB1; settings: at 10 µM
[3] = biological target: Tyrosine-protein kinase CSK (Homo sapiens) (UniProt P41240); test: Selectivity interaction (KinomeScan (DiscoverX)) EUB0000092b CSK; settings: at 10 µM
[4] = biological target: Calcium/calmodulin-dependent protein kinase type 1G (Homo sapiens) (UniProt Q96NX5); test: Selectivity interaction (Kinase panel (DSF assay)) EUB0001559a CAMK1G
[5] = biological target: Histone-lysine N-methyltransferase SETDB1 (Homo sapiens) (UniProt Q15047); test: Selectivity interaction (Transferase panel (protein, RNA, and DNA methyltransferases. and EP300 (acetyltransferase))) EUB0000270b SETDB1
[6] = biological target: T1, Mitogen-activated protein kinase kinase kinase 15 (Homo sapiens) (UniProt Q6ZN16); test: Selectivity interaction (KinomeScan (DiscoverX)) EUB0000695a MAP3K15; settings: at 100 nM
T1 sequence (whole entry): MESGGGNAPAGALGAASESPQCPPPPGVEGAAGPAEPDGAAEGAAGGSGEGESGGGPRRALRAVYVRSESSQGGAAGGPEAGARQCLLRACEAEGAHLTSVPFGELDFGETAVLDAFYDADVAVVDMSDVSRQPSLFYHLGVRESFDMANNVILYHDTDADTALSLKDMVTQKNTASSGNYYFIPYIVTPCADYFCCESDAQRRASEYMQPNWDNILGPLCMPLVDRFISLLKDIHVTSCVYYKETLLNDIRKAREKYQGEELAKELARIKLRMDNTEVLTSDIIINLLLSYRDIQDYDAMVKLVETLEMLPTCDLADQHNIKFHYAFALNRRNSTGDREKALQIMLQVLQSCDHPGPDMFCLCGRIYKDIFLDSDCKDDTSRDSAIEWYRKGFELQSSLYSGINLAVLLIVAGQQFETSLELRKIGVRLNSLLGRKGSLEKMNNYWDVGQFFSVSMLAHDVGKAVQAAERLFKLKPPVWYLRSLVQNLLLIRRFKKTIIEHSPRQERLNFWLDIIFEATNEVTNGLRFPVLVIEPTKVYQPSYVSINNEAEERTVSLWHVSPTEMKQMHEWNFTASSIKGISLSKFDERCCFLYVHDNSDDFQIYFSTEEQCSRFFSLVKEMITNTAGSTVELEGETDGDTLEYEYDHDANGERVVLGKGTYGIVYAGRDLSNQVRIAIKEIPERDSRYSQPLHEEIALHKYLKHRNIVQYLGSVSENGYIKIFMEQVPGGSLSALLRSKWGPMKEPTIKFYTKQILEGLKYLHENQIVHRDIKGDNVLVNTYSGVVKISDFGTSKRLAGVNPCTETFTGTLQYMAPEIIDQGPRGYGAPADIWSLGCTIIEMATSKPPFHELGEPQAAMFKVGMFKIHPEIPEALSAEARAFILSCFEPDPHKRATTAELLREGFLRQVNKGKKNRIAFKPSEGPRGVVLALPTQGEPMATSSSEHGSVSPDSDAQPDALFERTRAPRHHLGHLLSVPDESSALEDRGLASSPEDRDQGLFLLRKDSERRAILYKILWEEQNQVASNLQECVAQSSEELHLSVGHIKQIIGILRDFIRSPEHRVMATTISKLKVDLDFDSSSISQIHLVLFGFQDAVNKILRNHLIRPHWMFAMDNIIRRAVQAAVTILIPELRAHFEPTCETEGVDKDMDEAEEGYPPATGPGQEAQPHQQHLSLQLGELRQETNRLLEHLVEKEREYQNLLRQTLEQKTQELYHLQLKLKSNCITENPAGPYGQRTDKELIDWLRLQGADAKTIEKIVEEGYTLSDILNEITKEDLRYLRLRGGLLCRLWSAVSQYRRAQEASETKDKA

[7] = biological target: T2, Protein kinase C epsilon type (Homo sapiens) (UniProt Q02156); test: Selectivity interaction (KinomeScan (DiscoverX)) EUB0000695a PRKCE; settings: at 100 nM
T2 sequence (whole entry): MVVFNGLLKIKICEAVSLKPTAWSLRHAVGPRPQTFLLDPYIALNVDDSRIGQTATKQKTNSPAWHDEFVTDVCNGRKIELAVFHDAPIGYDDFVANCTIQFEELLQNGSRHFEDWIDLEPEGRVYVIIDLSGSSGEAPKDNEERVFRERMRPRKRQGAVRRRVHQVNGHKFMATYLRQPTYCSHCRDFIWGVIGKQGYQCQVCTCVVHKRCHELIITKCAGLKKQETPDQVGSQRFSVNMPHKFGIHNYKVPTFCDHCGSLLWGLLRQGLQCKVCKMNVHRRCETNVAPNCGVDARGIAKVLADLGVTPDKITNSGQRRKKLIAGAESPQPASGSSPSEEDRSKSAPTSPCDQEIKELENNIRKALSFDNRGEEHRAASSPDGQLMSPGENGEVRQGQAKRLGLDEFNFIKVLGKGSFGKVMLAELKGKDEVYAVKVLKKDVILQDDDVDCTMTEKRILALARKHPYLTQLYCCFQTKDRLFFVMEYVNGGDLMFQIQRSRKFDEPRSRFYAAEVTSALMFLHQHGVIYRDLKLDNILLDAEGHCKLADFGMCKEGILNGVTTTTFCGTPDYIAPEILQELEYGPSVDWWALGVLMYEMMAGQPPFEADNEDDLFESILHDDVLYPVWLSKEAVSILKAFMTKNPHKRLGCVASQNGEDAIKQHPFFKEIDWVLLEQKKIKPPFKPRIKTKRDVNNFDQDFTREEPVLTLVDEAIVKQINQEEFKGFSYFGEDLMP

[8] = biological target: Tyrosine-protein kinase receptor Tie-1 (Homo sapiens) (UniProt P35590); test: Selectivity interaction (KinomeScan (DiscoverX)) EUB0000618a TIE1; settings: at 10 µM
[9] = biological target: Calcium/calmodulin-dependent protein kinase type II subunit gamma (Homo sapiens) (UniProt Q13555); test: Selectivity interaction (KinomeScan (DiscoverX)) EUB0001619a CAMK2G; settings: at 1 µM
Chain of Calcium/calmodulin-dependent protein kinase type II subunit gamma (Homo sapiens) (Q13555 whole entry): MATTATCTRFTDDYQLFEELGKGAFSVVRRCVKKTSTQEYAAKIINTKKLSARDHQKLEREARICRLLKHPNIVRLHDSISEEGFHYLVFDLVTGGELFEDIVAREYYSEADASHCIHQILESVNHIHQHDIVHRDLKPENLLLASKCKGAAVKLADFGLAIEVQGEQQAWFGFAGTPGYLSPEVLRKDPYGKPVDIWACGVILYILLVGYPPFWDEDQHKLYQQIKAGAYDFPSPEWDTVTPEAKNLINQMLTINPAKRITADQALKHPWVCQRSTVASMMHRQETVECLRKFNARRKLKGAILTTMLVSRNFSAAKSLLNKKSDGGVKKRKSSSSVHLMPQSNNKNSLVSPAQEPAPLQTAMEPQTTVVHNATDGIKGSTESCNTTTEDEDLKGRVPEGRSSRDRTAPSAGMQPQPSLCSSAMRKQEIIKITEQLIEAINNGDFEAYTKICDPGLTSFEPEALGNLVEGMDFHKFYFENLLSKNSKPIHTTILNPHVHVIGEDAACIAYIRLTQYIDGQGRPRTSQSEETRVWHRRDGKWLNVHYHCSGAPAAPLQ

Chain of Tyrosine-protein kinase receptor Tie-1 (Homo sapiens) (P35590 whole entry): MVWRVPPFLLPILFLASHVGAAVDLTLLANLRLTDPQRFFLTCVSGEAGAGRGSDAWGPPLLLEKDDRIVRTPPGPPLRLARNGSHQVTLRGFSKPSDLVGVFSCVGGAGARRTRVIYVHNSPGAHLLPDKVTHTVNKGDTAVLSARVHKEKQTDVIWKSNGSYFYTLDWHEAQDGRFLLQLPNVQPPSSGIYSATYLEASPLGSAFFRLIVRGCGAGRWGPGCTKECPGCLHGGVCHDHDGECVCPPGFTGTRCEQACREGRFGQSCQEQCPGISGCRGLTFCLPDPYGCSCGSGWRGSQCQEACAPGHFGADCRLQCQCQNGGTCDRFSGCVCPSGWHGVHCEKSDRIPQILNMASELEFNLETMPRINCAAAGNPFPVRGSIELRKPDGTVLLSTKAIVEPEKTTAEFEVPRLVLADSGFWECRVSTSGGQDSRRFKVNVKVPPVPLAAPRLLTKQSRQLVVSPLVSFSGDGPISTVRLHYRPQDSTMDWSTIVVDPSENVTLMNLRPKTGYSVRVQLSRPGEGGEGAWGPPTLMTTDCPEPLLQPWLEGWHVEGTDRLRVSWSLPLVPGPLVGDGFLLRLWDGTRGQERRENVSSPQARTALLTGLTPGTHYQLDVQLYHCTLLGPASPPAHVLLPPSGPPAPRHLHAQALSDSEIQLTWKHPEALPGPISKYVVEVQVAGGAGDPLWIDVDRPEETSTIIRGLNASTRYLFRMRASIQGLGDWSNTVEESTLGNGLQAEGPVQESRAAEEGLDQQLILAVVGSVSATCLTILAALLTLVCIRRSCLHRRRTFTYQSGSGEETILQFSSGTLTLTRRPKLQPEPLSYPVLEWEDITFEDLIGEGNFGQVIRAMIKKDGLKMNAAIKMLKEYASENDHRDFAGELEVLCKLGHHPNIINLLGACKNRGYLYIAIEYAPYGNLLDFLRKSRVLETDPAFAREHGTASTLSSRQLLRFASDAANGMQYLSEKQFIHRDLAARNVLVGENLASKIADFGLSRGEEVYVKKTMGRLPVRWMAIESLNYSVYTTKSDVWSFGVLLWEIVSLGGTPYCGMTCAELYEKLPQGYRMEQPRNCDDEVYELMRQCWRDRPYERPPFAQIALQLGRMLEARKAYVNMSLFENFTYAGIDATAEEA
Chain of Tyrosine-protein kinase CSK (Homo sapiens) (P41240 2-450 limits assumed): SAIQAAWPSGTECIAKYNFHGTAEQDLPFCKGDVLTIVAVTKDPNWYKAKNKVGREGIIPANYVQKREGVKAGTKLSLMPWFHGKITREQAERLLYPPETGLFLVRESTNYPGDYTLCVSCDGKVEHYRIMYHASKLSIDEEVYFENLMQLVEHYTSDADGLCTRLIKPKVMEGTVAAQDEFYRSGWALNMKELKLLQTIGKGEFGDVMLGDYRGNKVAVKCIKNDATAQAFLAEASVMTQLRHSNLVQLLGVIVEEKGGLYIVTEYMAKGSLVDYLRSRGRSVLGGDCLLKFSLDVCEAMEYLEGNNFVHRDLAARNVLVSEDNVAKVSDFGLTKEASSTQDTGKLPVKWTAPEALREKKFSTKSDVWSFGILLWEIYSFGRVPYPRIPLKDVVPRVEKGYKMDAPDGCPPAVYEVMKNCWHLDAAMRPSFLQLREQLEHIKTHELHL
Chain of Ribosomal protein S6 kinase beta-1 (P23443 whole entry, looked up): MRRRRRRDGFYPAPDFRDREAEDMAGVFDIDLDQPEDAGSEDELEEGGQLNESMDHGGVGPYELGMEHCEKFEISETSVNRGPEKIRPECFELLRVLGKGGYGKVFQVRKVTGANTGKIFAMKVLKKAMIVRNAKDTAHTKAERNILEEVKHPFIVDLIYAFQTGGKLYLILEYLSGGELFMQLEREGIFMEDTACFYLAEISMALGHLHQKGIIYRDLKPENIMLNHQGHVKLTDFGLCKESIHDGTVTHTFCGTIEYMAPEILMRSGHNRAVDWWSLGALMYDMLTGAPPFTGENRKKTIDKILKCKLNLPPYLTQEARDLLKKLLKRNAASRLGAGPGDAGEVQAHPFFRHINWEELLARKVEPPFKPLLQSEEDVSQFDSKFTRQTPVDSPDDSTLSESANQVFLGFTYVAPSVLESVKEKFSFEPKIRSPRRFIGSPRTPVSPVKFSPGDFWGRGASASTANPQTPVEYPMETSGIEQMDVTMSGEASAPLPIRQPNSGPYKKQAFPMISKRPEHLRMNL
Chain of 5'-AMP-activated protein kinase catalytic subunit alpha-2 (Homo sapiens) (P54646 whole entry, looked up): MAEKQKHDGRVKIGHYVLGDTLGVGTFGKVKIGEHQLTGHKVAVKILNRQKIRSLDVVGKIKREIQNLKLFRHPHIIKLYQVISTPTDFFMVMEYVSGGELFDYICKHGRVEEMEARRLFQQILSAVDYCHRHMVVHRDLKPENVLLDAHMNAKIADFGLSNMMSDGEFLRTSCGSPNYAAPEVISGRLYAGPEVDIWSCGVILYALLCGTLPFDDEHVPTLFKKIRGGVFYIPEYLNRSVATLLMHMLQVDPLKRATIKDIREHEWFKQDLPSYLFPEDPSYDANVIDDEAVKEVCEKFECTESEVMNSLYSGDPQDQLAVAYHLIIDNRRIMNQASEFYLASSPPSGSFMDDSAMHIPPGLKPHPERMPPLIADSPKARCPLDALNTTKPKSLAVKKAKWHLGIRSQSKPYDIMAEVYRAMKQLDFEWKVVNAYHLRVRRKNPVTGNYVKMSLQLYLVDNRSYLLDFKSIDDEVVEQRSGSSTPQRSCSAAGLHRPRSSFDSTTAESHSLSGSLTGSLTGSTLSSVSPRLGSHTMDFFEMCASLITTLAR
Chain of Calcium/calmodulin-dependent protein kinase type 1G (Homo sapiens) (Q96NX5 whole entry): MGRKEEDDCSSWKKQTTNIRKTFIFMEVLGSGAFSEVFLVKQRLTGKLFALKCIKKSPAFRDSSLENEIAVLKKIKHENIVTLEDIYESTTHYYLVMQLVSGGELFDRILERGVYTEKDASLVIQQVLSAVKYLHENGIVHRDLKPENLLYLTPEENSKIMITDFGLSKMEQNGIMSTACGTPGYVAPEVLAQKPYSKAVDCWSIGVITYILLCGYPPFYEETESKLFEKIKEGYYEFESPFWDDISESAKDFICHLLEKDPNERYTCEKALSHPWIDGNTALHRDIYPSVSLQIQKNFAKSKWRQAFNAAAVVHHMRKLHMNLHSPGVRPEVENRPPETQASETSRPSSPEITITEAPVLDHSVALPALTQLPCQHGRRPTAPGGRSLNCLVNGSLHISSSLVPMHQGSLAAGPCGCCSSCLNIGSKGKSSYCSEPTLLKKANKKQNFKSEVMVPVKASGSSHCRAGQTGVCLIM

`CCN(CC)CCCCNc1ncc2cc(-c3cc(OC)cc(OC)c3)c(NC(=O)NC(C)(C)C)nc2n1` showed a % of control [1] of 100%.
Compound `COc1cc(N(C)c2ccnc3ccc(C(F)(F)F)cc23)cc(OC)c1OC` has a % binding [2] of 71%.
`CCC(=O)N1CCN(c2ccc(-n3c(=O)ccc4cnc5ccc(-c6cnc7ccccc7c6)cc5c43)cc2C(F)(F)F)CC1` showed a % of control [3] of 71%.
`CN(C(=O)c1cnn2cccnc12)c1cc2c(cc1N1CCOCC1)C(=O)N(C[C@@H](F)C(C)(C)O)C2` gave a dTM [4] of -0.6 K.
Work on `Cc1cc(CN)cc(C)c1-c1ncn(C)c1-c1cncn1C` yielded a % activity ([5]; at 1 µM) of over 90% and a % activity ([5]; at 10 µM) of over 80%.
Work on `Cc1cc(F)c(C(=O)Nc2cccc(-c3nncn3C(C)C)n2)cc1-n1cnc(C2CC2)c1` yielded a % of control [6] of 66% and a % of control [7] of 97%.
Compound `O[C@H]1CC[C@H](Nc2ncc3nc(Nc4c(F)cc(F)cc4F)n([C@H]4CCOC4)c3n2)CC1` has a % of control [8] of 100%.
For `N#Cc1cccc(-c2c[nH]c3ncnc(N4CCOCC4)c23)c1`, the % of control [9] was 100%.

From ChEMBL document CHEMBL5465560, “Selectivity Literature for EUbOPEN Chemogenomic Library” (2024)
